Experimental data from US7696185B2, “Peptidomimetic inhibitors of PSMA, compounds comprising them, and methods of use” (Cancer Targered Technology LLC, priority 2006, dated 2010).
Each block holds one compound with its values, some of them ahead of it.

What was measured:
PSMA [1] = molecular target: T1, PSMA (Homo sapiens, UniProt Q04609); assay: Time-dependence and reversibility of PSMA inhibition (100-fold dilution of inhibited enzyme); assay type: biochemical; conditions: for reversibility of PSMA inhibition: recovery of PSMA activity after 100-fold dilution of inhibited enzyme
T1 sequence (Q04609 whole entry): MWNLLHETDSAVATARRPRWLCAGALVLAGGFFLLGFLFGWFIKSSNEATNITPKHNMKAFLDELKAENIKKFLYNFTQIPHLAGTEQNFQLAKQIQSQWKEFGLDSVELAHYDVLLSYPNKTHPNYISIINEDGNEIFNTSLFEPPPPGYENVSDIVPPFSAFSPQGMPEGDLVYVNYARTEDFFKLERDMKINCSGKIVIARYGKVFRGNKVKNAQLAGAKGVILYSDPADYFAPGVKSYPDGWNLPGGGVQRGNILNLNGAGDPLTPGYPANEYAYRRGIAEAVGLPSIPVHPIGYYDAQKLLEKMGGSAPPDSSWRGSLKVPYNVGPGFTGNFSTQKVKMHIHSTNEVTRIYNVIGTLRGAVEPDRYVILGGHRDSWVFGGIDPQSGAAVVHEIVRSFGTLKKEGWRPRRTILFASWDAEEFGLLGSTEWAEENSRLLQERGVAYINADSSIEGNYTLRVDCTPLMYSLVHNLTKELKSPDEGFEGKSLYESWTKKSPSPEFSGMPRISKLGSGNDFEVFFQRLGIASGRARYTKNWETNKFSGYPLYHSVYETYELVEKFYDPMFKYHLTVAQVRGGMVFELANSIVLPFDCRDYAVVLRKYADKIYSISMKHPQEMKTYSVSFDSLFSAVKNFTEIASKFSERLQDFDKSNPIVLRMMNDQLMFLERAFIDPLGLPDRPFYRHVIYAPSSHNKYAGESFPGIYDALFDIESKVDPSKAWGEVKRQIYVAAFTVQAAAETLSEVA

purified PSMA = molecular target: T2, purified PSMA (Homo sapiens, UniProt Q04609); assay: PMSA Inhibition Assay (HPLC, PAB-Glu-γ-Glu substrate); assay type: biochemical; conditions: for IC50: read-out: IC50 against PSMA; for inhibitory potency / affinity for PSMA (in words): purified PSMA from LNCaP cells
T2 construct: against purified PSMA from LNCaP cells by our published method; endogenous in cells; host or cells: LNCaP cells
T2 sequence (Q04609 whole entry): as above
Protocol: Adapted from, Maung, J.; Mallari, J. P.; Girtsman, T. A.; Wu, L. Y.; Rowley, J. A.; Santiago, N. M.; Brunelle, A.; Berkman, C. E. Probing for a Hydrophobic a Binding Register in Prostate-Specific Membrane Antigen with Phenylalkylphosphonamidates. […] Med. Chem. 2004, 12, 4969.
Working solutions of the substrate (N-[4-(phenylazo)benzoyl]-glutamyl-g-glutamic acid, PAB-Glu-γ-Glu) and all inhibitors were made in TRIS buffer (50 mM, pH 7.4). Working solutions of purified PSMA were appropriately diluted in TRIS buffer (50 mM, pH 7.4) to provide from 15% to 20% conversion of substrate to product in the absence of inhibitor. A typical incubation mixture (final volume 250 μL) was prepared by the addition of either 25 μL of an inhibitor solution or 25 μL TRIS buffer (50 mM, pH 7.4) to 175 μL TRIS buffer (50 mM, pH 7.4) in a test tube. A volume of the 25 μL PAB-Glu-γ-Glu (100 μM) was added to the above solution. The enzymatic reaction was initiated by the addition of 25 μL of the PSMA working solution. In all cases, the final concentration of PAB-Glu-γ-Glu was 10 μM while the enzyme was incubated with five serially-diluted inhibitor concentrations to provide a range of inhibition from 10% to 90% inhibition. The reaction was allowed to proceed for 15 min with constant shaking at 37° C. and was terminated by the addition of 25 μL methanolic TFA (2% trifluoroacetic acid by volume in methanol) followed by vortexing. The quenched incubation mixture was quickly buffered by the addition of 25 μL K2HPO4 (0.1 M), vortexed, and centrifuged (10 min at 7000 g). An 85 μL aliquot of the resulting supernatant was subsequently quantified by HPLC. IC50 values were calculated using KaleidaGraph 3.6 (Synergy Software).
PABGγG and its hydrolytic product (PABG) were separated and quantified using an analytical reversed-phase HPLC column (Lichrosphere C18 5 μm, 150×4.6 mm; Phenomenex, Torrence, Calif.) with a mobile phase consisting of ACN/potassium phosphate [25 mM, pH 2.0 (adjusted with H3PO4)] at a respective volume ratio of 40:60.

LNCaP cells = assay: Fluorescence/confocal microscopy labeling of PSMA-expressing cells; assay type: cell-based; conditions: PSMA-expressing prostate cancer cells; fluorescence microscopy
Protocol: (§1) These compounds have been subsequently derivatized with amine-reactive fluorescent dyes (FIG. 9) to specifically label PSMA-expressing prostate cancer cells. […] Confocal microscopy was conducted on both LNCaP and PC3 prostate cancer cells after treatment with L6-V1-21 and propidium iodide.
(§2) While propidium iodide stained the nuclei of both cell lines, only the surface of the PSMA-expressing LNCaP 6 cells were fluorescently labeled with L6-V1-21. The intensely labeled sites on these LNCaP cells are hypothesized to be locations in which PSMA has aggregated.
(§3) To confirm that LW-54-F5EX was specific for PSMA-expressing cells, both LNCaP and PC3 cells were treated with this compound. While DAPI (4′,6-diamidino-2-phenylindole) stained nuclear DNA in both cell lines, only LNCaP cells were fluorescently labeled with LW-54-F5EX.
(§4) In that experiment, both LNCaP and PC3 cells were treated with LW-54-5FAMX. While DAPI (4′,6-diamidino-2-phenylindole) stained nuclear DNA in both cell lines, only LNCaP cells were fluorescently labeled with LW-54-5FAMX.

PC3 cells = assay: Fluorescence/confocal microscopy labeling of cells that do not express PSMA (negative control); assay type: cell-based; conditions: fluorescence microscopy
Protocol: as §1, §2, §3, §4

PSMA [2] = molecular target: T1, PSMA; assay: Inhibitor induced PSMA homodimer formation (Western blots); assay type: biochemical; conditions: treatment of PSMA with inhibitor
Text: As shown in the representative example in FIG. 6, covalent PSMA dimer formation mediated by T33 is both concentration dependent and time-dependent. […] Although we have not determined the mechanism of inhibition for T33, L36 and MP1D, it is clear that these agents represent a unique class of inhibitors of PSMA that may be used as covalent delivery vehicles specific for PSMA-expressing cancer cells. Based upon a cursory literature review, this is the first design and preparation of irreversible covalent modifiers of PSMA.

MMP-2 = molecular target: T3, MMP-2 (Homo sapiens, UniProt P08253); assay: MMP-2 inhibition; assay type: biochemical; conditions: concentrations up to 10 μM
T3 sequence (P08253 110-660): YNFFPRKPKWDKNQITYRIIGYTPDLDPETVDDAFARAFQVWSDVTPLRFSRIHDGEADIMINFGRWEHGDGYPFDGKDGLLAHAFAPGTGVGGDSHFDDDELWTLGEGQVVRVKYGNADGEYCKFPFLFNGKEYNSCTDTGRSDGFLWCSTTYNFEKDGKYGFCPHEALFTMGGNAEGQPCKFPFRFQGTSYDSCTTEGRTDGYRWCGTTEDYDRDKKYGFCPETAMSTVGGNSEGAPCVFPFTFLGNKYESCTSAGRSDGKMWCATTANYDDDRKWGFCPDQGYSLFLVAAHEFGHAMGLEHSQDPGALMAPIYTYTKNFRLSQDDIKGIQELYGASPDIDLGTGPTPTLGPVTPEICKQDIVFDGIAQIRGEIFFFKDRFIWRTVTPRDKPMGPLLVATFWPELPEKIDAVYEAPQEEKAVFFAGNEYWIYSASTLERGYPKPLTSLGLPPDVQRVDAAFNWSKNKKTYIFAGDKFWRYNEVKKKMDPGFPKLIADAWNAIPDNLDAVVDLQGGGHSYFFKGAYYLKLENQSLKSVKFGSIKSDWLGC

[3] = molecular target: matrix metalloproteinase-9 (MMP-9) (Homo sapiens, UniProt P14780); assay: MMP-9 inhibition (specificity study); assay type: biochemical; conditions: preliminary study; read-out: Ki against MMP-9
Chain of matrix metalloproteinase-9 (MMP-9) (P14780 94-707, species assumed): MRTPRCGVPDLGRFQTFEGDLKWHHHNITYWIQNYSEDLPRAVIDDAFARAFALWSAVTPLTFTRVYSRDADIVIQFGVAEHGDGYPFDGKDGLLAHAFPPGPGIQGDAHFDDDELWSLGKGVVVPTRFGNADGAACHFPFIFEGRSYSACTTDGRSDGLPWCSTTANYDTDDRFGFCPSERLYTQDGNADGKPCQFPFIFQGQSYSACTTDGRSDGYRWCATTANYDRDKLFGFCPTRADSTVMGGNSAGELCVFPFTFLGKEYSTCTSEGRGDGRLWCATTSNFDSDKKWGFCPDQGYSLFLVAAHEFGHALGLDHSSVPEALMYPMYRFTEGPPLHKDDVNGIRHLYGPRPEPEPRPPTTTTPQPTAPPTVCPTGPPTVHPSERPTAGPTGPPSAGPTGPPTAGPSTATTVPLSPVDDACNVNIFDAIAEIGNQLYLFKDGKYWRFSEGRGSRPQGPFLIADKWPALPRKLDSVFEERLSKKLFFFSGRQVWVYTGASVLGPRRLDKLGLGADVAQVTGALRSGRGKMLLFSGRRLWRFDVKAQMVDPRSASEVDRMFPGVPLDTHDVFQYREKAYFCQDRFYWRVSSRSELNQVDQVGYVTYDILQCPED
Protocol: To determine that the design of the phosphoramidate inhibitors of the invention is specific to PSMA, a preliminary study was conducted with representative compounds from the T33 analog library (FIG. 1) with matrix metalloproteinase-9 (MMP-9). The MMP enzymes are zinc-dependent endopeptidases involved in the degradation of extracellular matrices.

Structure (SMILES): O=C(O)CC[C@H](NP(=O)(O)OCC(CCc1ccccc1)C(=O)O)C(=O)O (stereo partly drawn) [MP1E, N-[(2-carboxy-4-phenylbutoxy)(hydroxy)phosphoryl] -L-glutamic acid]
reversibility of PSMA inhibition (PSMA [1]): irreversible

Structure (SMILES): O=C1C=CC2C(=C1)Oc1cc(O)ccc1C2c1ccc(NC(=S)N[C@@H](COP(=O)(O)N[C@@H](CCC(=O)O)C(=O)O)C(=O)O)cc1C(=O)O (stereo partly drawn) [Compound L6-V1-21, N-[{(2S)-2-carboxy-2-[({[3-carboxy-4-(6-hydroxy-3-oxo-9,9a-dihydro-3H-xanthen-9-yl)phenyl]amino}carbonothioyl)amino]ethoxy} (hydroxy)phosphoryl]-L-glutamic acid]
IC50 (purified PSMA): 0.085 µM | fluorescent labeling of LNCaP cells (LNCaP cells): extensive cell-surface labeling | fluorescent labeling of PC3 cells (PC3 cells): no green fluorescent labeling

Structure (SMILES): O=C(O)CC[C@H](NP(=O)(O)OCCCCc1ccccc1)C(=O)O [MP1D, N-[hydroxy(4-phenylbutoxy)phosphoryl]-L-glutamic acid]
inhibitory potency / affinity for PSMA (in words) (purified PSMA): considerable affinity is maintained | reversibility of PSMA inhibition (PSMA [1]): irreversible inhibition

Structure (SMILES): O=C1C=CC2C(=C1)Oc1cc(O)ccc1C2c1ccc(NC(=O)CSCCC(=O)N[C@@H](CCC(=O)N[C@@H](COP(=O)(O)N[C@@H](CCC(=O)O)C(=O)O)C(=O)O)C(=O)O)cc1C(=O)O (stereo partly drawn) [LW-54-F5EX, N-{3-[(2-{[3-carboxy-4-(6-hydroxy-3-oxo-9,9a-di hydro-3H-xanthen-9-yl)phenyl]amino}-2-oxoethyl)thio]propanoyl}-L-γ-glutamyl -O-[{[(1S)-1,3-dicarboxypropyl]amino}(hydroxy)phosphoryl]-L-serine]
fluorescent labeling of LNCaP cells (LNCaP cells): extensive cell-surface labeling | fluorescent labeling of PC3 cells (PC3 cells): no green fluorescent labeling

Structure (SMILES): O=C(O)CC[C@H](NP(=O)(O)OCc1ccc(-c2ccccc2)cc1)C(=O)O [NC-2-29, N-[(biphenyl-4-ylmethoxy) (hydroxy)phosphoryl]-L-glutamic acid]
Ki [3]: 5000 µM

Next, values leading:

reversibility of PSMA inhibition (PSMA [1]): irreversible inhibitors
Structure (SMILES): NCc1ccc(C(=O)N[C@@H](COP(=O)(O)N[C@@H](CCC(=O)O)C(=O)O)C(=O)O)cc1 [LW-39, N-{[(2S)-2-{[4-(aminomethyl)benzoyl]amino}-2-carboxyethoxy](hydroxy)phosphoryl}-L-glutamic acid]

inhibitory potency / affinity for PSMA (in words) (purified PSMA): superior inhibitory potency | reversibility of PSMA inhibition (PSMA [1]): irreversible | covalent PSMA homodimer formation (PSMA [2]): formation of covalent PSMA homodimers
Structure (SMILES): CN(C(=O)c1ccccc1)[C@@H](COP(=O)(O)N[C@@H](CCC(=O)O)C(=O)O)C(=O)O [Compound L36, N-[{(2S)-2-[benzoyl(methyl)amino]-2-carboxyethoxy} (hydroxy)phosphoryl]-L-glutamic acid]

inhibitory potency / affinity for PSMA (in words) (purified PSMA): superior inhibitory potency | IC50 (purified PSMA): < 0.05 µM | time-dependence of PSMA inhibition (PSMA [1]): time-dependent PSMA inhibition | reversibility of PSMA inhibition (PSMA [1]): irreversible | covalent PSMA homodimer formation (PSMA [2]): formation of covalent PSMA homodimers | inhibition of MMP-2 (MMP-2): no inhibition
Structure (SMILES): O=C(O)CC[C@H](NP(=O)(O)OC[C@H](NC(=O)c1ccccc1)C(=O)O)C(=O)O [Compound T33, N-{[(2S)-2-(benzoylamino) -2-carboxyethoxy](hydroxy)phosphoryl}-L-glutamic acid]
